# Test results reported in ChEMBL document CHEMBL1201861, “Genomics of Drug Sensitity in Cancer screening data, Wellcome Trust Sanger Institute”.
# Tests used:
# Assay in all cases: cells
# Format in all cases: functional, cell-based, Homo sapiens
# [1] = system: HCC2218; conditions: Homo sapiens, HCC2218;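 also: cell viability assay read-out, with IC50 given as the concentration that inhibits growth of the cell line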
# Description: SANGER: Inhibition of human HCC2218 cell growth in a cell viability assay.
# [2] = system: OMC-1; conditions: Homo sapiens, OMC-1;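 also: growth inhibition of the OMC-1 cell line, measured by a cell viability assay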
# Description: SANGER: Inhibition of human OMC-1 cell growth in a cell viability assay.
# [3] = system: RPMI-8866; conditions: Homo sapiens, RPMI-8866
# Description: SANGER: Inhibition of human RPMI-8866 cell growth in a cell viability assay.
# [4] = system: L-428; conditions: Homo sapiens, L-428
# Description: SANGER: Inhibition of human L-428 cell growth in a cell viability assay.
# [5] = system: SF-268; conditions: Homo sapiens, SF-268;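 also: growth inhibition of SF-268 cells determined with a cell viability assay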
# Description: SANGER: Inhibition of human SF268 cell growth in a cell viability assay.
# [6] = system: NCI-H1838; conditions: Homo sapiens, NCI-H1838;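 also: growth inhibition of NCI-H1838 cells, determined with a cell viability readout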
# Description: SANGER: Inhibition of human NCI-H1838 cell growth in a cell viability assay.
# [7] = system: Becker; conditions: Homo sapiens, Becker;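 also: growth inhibition of Becker cells, read out with a cell viability assay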
# Description: SANGER: Inhibition of human Becker cell growth in a cell viability assay.
# [8] = system: KU812 cell line; conditions: Homo sapiens, KU812;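 also: growth inhibition of KU812 cells, read out with a cell viability assay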
# Description: SANGER: Inhibition of human KU812 cell growth in a cell viability assay.
# [9] = system: J-RT3-T3-5; conditions: Homo sapiens, J-RT3-T3-5;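 also: cell viability assay measuring growth inhibition of human J-RT3-T3-5 cells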
# Description: SANGER: Inhibition of human J-RT3-T3-5 cell growth in a cell viability assay.
# [10] = system: NCI-H82; conditions: Homo sapiens, NCI-H82;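 also: growth inhibition of NCI-H82 cells, measured with a cell viability readout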
# Description: SANGER: Inhibition of human NCI-H82 cell growth in a cell viability assay.
# [11] = system: LNCaP-Clone-FGC; conditions: Homo sapiens, LNCaP-Clone-FGC
# Description: SANGER: Inhibition of human LNCaP-Clone-FGC cell growth in a cell viability assay.
# [12] = system: RCC10RGB; conditions: Homo sapiens, RCC10RGB;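 also: growth inhibition of human RCC10RGB cells, read out by a cell viability assay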
# Description: SANGER: Inhibition of human RCC10RGB cell growth in a cell viability assay.
# [13] = system: C2BBe1; conditions: Homo sapiens, C2BBe1;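 also: growth inhibition of C2BBe1 cells, read out through a viability assay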
# Description: SANGER: Inhibition of human C2BBe1 cell growth in a cell viability assay.
# [14] = system: MN-60; conditions: Homo sapiens, MN-60;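 also: growth inhibition of the MN-60 cell line, determined with a cell viability assay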
# Description: SANGER: Inhibition of human MN-60 cell growth in a cell viability assay.
# [15] = system: no-10; conditions: Homo sapiens;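 also: growth inhibition of no-10 cells, read out with a cell viability assay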
# Description: SANGER: Inhibition of human no-10 cell growth in a cell viability assay.
# [16] = system: KLE; conditions: Homo sapiens, KLE;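 also: growth inhibition of human KLE cells, read out with a cell viability assay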
# Description: SANGER: Inhibition of human KLE cell growth in a cell viability assay.
# [17] = system: NH-12; conditions: Homo sapiens, NH-12;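 also: growth inhibition of NH-12 cells, read out with a cell viability assay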
# Description: SANGER: Inhibition of human NH-12 cell growth in a cell viability assay.
# [18] = system: DSH1; conditions: Homo sapiens, DSH1;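 also: growth inhibition of human DSH1 cells, measured with a cell viability readout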
# Description: SANGER: Inhibition of human DSH1 cell growth in a cell viability assay.
# [19] = system: IST-MES1; conditions: Homo sapiens, IST-MES1;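 also: growth inhibition of IST-MES1 cells, measured with a cell viability assay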
# Description: SANGER: Inhibition of human IST-MES1 cell growth in a cell viability assay.
# [20] = system: DU-4475; conditions: Homo sapiens, DU-4475
# Description: SANGER: Inhibition of human DU-4475 cell growth in a cell viability assay.
# [21] = system: OVCAR-4; conditions: Homo sapiens, OVCAR-4;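 also: growth inhibition of human OVCAR-4 cells, measured with a cell viability assay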
# Description: SANGER: Inhibition of human OVCAR-4 cell growth in a cell viability assay.
# [22] = system: QIMR-WIL; conditions: Homo sapiens, QIMR-WIL;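 also: growth inhibition of QIMR-WIL cells, read out with a cell viability assay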
# Description: SANGER: Inhibition of human QIMR-WIL cell growth in a cell viability assay.
# [23] = system: KP-N-YS; conditions: Homo sapiens, KP-N-YS;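 also: cell viability assay measuring inhibition of cell line growth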
# Description: SANGER: Inhibition of human KP-N-YS cell growth in a cell viability assay.
# [24] = system: MMAC-SF; conditions: Homo sapiens, MMAC-SF;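 also: growth inhibition of human MMAC-SF cells, read out with a cell viability assay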
# Description: SANGER: Inhibition of human MMAC-SF cell growth in a cell viability assay.
# [25] = system: EW-13; conditions: Homo sapiens, EW-13;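 also: growth inhibition of EW-13 cells, read out with a cell viability assay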
# Description: SANGER: Inhibition of human EW-13 cell growth in a cell viability assay.
# [26] = system: COLO-824; conditions: Homo sapiens, COLO-824
# Description: SANGER: Inhibition of human COLO-824 cell growth in a cell viability assay.
# [27] = system: DEL; conditions: Homo sapiens, DEL;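 also: growth inhibition of the human DEL cell line, read out with a cell viability assay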
# Description: SANGER: Inhibition of human DEL cell growth in a cell viability assay.
# [28] = system: BB49-HNC; conditions: Homo sapiens, BB49-HNC;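 also: cell viability assay read-out, reported as inhibition of BB49-HNC cell growth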
# Description: SANGER: Inhibition of human BB49-HNC cell growth in a cell viability assay.
# [29] = system: SNU1; conditions: Homo sapiens, SNU1;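 also: growth inhibition of human NCI-SNU-1 cells, measured with a cell viability assay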
# Description: SANGER: Inhibition of human NCI-SNU-1 cell growth in a cell viability assay.
# [30] = system: NB13; conditions: Homo sapiens, NB13;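 also: cell viability readout measuring growth inhibition of human NB13 cells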
# Description: SANGER: Inhibition of human NB13 cell growth in a cell viability assay.
# [31] = system: LAMA-84; conditions: Homo sapiens, LAMA-84;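 also: growth inhibition of LAMA-84 cells, read out with a cell viability assay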
# Description: SANGER: Inhibition of human LAMA-84 cell growth in a cell viability assay.
# [32] = system: NCI-H226; conditions: Homo sapiens, NCI-H226;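 also: cell viability read-out used to gauge growth inhibition of the cells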
# Description: SANGER: Inhibition of human NCI-H226 cell growth in a cell viability assay.
# [33] = system: GI-1; conditions: Homo sapiens, GI-1;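 also: growth inhibition of human GI-1 cells, measured with a cell viability readout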
# Description: SANGER: Inhibition of human GI-1 cell growth in a cell viability assay.
# [34] = system: MZ1-PC; conditions: Homo sapiens, MZ1-PC;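 also: cell viability assay measuring growth inhibition of human MZ1-PC cells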
# Description: SANGER: Inhibition of human MZ1-PC cell growth in a cell viability assay.
# [35] = system: HC-1; conditions: Homo sapiens, HC-1;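 also: growth inhibition of HC-1 cells measured by a cell viability assay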
# Description: SANGER: Inhibition of human HC-1 cell growth in a cell viability assay.
# [36] = system: GOTO; conditions: Homo sapiens, GOTO;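 also: growth inhibition of GOTO cells, read out by a cell viability assay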
# Description: SANGER: Inhibition of human GOTO cell growth in a cell viability assay.
# [37] = system: NCI-H2126; conditions: Homo sapiens, NCI-H2126;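 also: growth inhibition of the cancer cell line, determined with a cell viability readout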
# Description: SANGER: Inhibition of human NCI-H2126 cell growth in a cell viability assay.
# [38] = system: TE-6; conditions: Homo sapiens, TE-6;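 also: growth inhibition of TE-6 cells, read out with a cell viability assay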
# Description: SANGER: Inhibition of human TE-6 cell growth in a cell viability assay.
# [39] = system: TGBC24TKB; conditions: Homo sapiens, TGBC24TKB;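 also: growth inhibition of human TGBC24TKB cells, read out with a cell viability assay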
# Description: SANGER: Inhibition of human TGBC24TKB cell growth in a cell viability assay.
# [40] = system: SK-LMS-1; conditions: Homo sapiens, SK-LMS-1;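 also: growth inhibition of human SK-LMS-1 cells, read out with a cell viability assay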
# Description: SANGER: Inhibition of human SK-LMS-1 cell growth in a cell viability assay.
# [41] = system: IST-SL1; conditions: Homo sapiens, IST-SL1;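 also: growth inhibition of human IST-SL1 cells, read out with a cell viability assay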
# Description: SANGER: Inhibition of human IST-SL1 cell growth in a cell viability assay.
# [42] = system: NKM-1; conditions: Homo sapiens, NKM-1;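 also: growth inhibition of NKM-1 cells, read out with a cell viability assay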
# Description: SANGER: Inhibition of human NKM-1 cell growth in a cell viability assay.
# [43] = system: K5; conditions: Homo sapiens, K5
# Description: SANGER: Inhibition of human K5 cell growth in a cell viability assay.
# [44] = system: NCI-H510A; conditions: Homo sapiens, NCI-H510A;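 also: growth inhibition of NCI-H510A cells, read out with a cell viability assay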
# Description: SANGER: Inhibition of human NCI-H510A cell growth in a cell viability assay.
# [45] = system: SNB-75; conditions: Homo sapiens, SNB-75;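 also: cell viability assay measuring growth inhibition of human SNB-75 cells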
# Description: SANGER: Inhibition of human SNB75 cell growth in a cell viability assay.
# [46] = system: ONS-76; conditions: Homo sapiens, ONS-76;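 also: growth inhibition of human ONS-76 cells, read out with a cell viability assay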
# Description: SANGER: Inhibition of human ONS-76 cell growth in a cell viability assay.
# [47] = system: GCIY; conditions: Homo sapiens, GCIY;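 also: growth inhibition of the human GCIY cell line, read out by a cell viability assay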
# Description: SANGER: Inhibition of human GCIY cell growth in a cell viability assay.
# [48] = system: CCRF-CEM; conditions: Homo sapiens, CCRF-CEM;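 also: inhibition of CCRF-CEM cell growth, measured by a cell viability assay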
# Description: SANGER: Inhibition of human CCRF-CEM cell growth in a cell viability assay.
# [49] = system: NCI-H1355; conditions: Homo sapiens, NCI-H1355;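 also: growth inhibition of human NCI-H1355 cells, read out by a cell viability assay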
# Description: SANGER: Inhibition of human NCI-H1355 cell growth in a cell viability assay.
compound,measurement,setting,value
Cc1cc([N+](=O)[O-])ccc1NS(=O)(=O)c1cc(Cl)ccc1Cl,IC50,[1],3.44 µM
same,IC50,[2],8.57 µM
same,IC50,[3],3.32 µM
same,IC50,[4],> 32 µM
same,IC50,[5],6.02 µM
same,IC50,[6],> 32 µM
same,IC50,[7],16.5 µM
same,IC50,[8],7.2 µM
same,IC50,[9],5.35 µM
same,IC50,[10],18 µM
same,IC50,[11],21.6 µM
same,IC50,[12],> 32 µM
same,IC50,[13],25.4 µM
same,IC50,[14],27 µM
same,IC50,[15],> 32 µM
same,IC50,[16],6.59 µM
same,IC50,[17],14.6 µM
same,IC50,[18],0.949 µM
same,IC50,[19],4.85 µM
same,IC50,[20],7.83 µM
same,IC50,[21],4.61 µM
same,IC50,[22],6.82 µM
same,IC50,[23],15.9 µM
same,IC50,[24],3.92 µM
same,IC50,[25],6.04 µM
same,IC50,[26],18.1 µM
same,IC50,[27],6.68 µM
same,IC50,[28],> 32 µM
same,IC50,[29],10.8 µM
same,IC50,[30],7.32 µM
same,IC50,[31],6.09 µM
same,IC50,[32],12.3 µM
same,IC50,[33],1.43 µM
same,IC50,[34],6.31 µM
same,IC50,[35],12.7 µM
same,IC50,[36],> 32 µM
same,IC50,[37],24.8 µM
same,IC50,[38],19.2 µM
same,IC50,[39],5.2 µM
same,IC50,[40],3.1 µM
same,IC50,[41],24.4 µM
same,IC50,[42],10.2 µM
same,IC50,[43],6.43 µM
same,IC50,[44],20.2 µM
same,IC50,[45],> 32 µM
same,IC50,[46],6.44 µM
same,IC50,[47],2.94 µM
same,IC50,[48],7.88 µM
same,IC50,[49],2.93 µM
Oc1ccc2ccccc2c1SSc1c(O)ccc2ccccc12,IC50,[1],> 32 µM
same,IC50,[2],> 32 µM
same,IC50,[3],> 32 µM
same,IC50,[4],> 32 µM
same,IC50,[5],> 32 µM
same,IC50,[6],> 32 µM
same,IC50,[7],> 32 µM
same,IC50,[8],2.76 µM
same,IC50,[9],> 32 µM
same,IC50,[10],> 32 µM
same,IC50,[11],> 32 µM
same,IC50,[12],> 32 µM
same,IC50,[13],> 32 µM
same,IC50,[14],> 32 µM
same,IC50,[15],> 32 µM
same,IC50,[16],> 32 µM
same,IC50,[17],5.12 µM
same,IC50,[18],> 32 µM
same,IC50,[19],> 32 µM
same,IC50,[20],> 32 µM
same,IC50,[21],> 32 µM
same,IC50,[22],2.91 µM
same,IC50,[23],> 32 µM
same,IC50,[24],> 32 µM
same,IC50,[25],4.2 µM
same,IC50,[26],> 32 µM
same,IC50,[27],9.64 µM
same,IC50,[28],> 32 µM
same,IC50,[29],> 32 µM
same,IC50,[30],4.23 µM
same,IC50,[31],> 32 µM
same,IC50,[32],12.6 µM
same,IC50,[33],> 32 µM
same,IC50,[34],> 32 µM
same,IC50,[35],8.07 µM
same,IC50,[36],> 32 µM
same,IC50,[37],> 32 µM
same,IC50,[38],> 32 µM
same,IC50,[39],> 32 µM
same,IC50,[40],14.8 µM
same,IC50,[41],> 32 µM
same,IC50,[42],> 32 µM
same,IC50,[43],> 32 µM
same,IC50,[44],> 32 µM
same,IC50,[45],> 32 µM
same,IC50,[46],> 32 µM
same,IC50,[47],> 32 µM
same,IC50,[48],5.98 µM
same,IC50,[49],> 32 µM
